These results are taken from US20120321594A1, “METHODS OF CONTROLLING AXON OR DENDRITE DEVELOPMENT OF NEURONAL CELLS” (NEW YORK UNIVERSITY, priority 2011, published 2012).

The test system of one data set is Cav2.3 channels. Nature of the data set: Whole-cell Ca^2+ currents at growth cones of cultured xSCINs, isolated Cav2.3 (R-type) currents. The class given is cell-based, Xenopus laevis.
For data set [1], the system named is MAP2-positive dendrites of Xenopus spinal cord. Kind of data set: Whole-mount MAP2 immunohistochemistry of spinal cords (dendrite identity in vivo). More on the design: species or system Xenopus laevis. Particulars: for MAP2-IR in the MO-injected side of spinal cords: stage 42, compared to the uninjected side.
In another data set the test system is xCav2.3α1E. Kind of data set: Whole-mount immunostaining of xCav2.3α1E expression in spinal cords. In kind it is in vivo, Xenopus laevis.
Another data set concerns Cav2.3α1E. Nature of the data set: Cav2.3α1E immunoreactivity in cultured xSCINs. In kind it is cell-based, Xenopus laevis. Particulars: pre-treatment with the agent. The method, then: Sema3A and +CHX, respectively, indicate treatment with Sema3A (2 U·ml−1) for 10 min or with Sema3A (2 U·ml−1) for 10 min after a one-minute pre-administration of cycloheximide (25 μM). FIG. 16B is a graph showing a summary of Cav2.3α1E immunoreactivity (IR, AU) in each experimental condition. […] FIGS. 16D and 16E are immunofluorescence images (FIG. 16D) and summaries (FIG. 16E) of Cav2.3α1E IR in Xenopus spinal cords either without (Control) or with (+CHX) local injection of cycloheximide (2.5 mM). Cav2.3α1E IR was normalized against that of control animals. For uninjected controls, the right sides of spinal cords were normalized against the left sides. Scale bars, 20 μm; data are mean±s.e.m; (n) =number of cultures (150 to 200 neurons, FIG. 16B) spinal cords examined (FIG. 16E). Significant difference from the control is indicated (**p<0.01). […]

A further data set deals with xSema3A. Kind of data set: Whole-mount immunostaining of xSema3A expression in spinal cords. Particulars: stage 30-32 spinal cords.
The subject of another data set is cultured xSCINs. Kind of data set: Neurite identity (tau-1 / MAP2 immunocytochemistry) of cultured xSCINs. In kind it is cell-based, Xenopus laevis. The method, then: Capped messenger RNAs encoding NP1-0111, hSema3A, mCav2.3α1E, and green fluorescent protein (GFP) were synthesized with mMESSAGE mMACHINE (Ambion Inc.) and purified on NucAway™ Spin Columns (Ambion Inc.) as described by the manufacturer. […] Each blastomere was injected with 4 to 8 nl of 0.5 μg·ul^−1 NPI-0111, 0.5 μg·μl^−1 hSema3A, or 0.5 μg·μl^−mCav2.3α1E mRNA and 0.25 μg·μl^−1 GFP mRNA as an expression indicator. Primary Xenopus spinal neurons derived from developmental stage 26 embryos were cultured at 23° C.-25° C. for 16-20 hours and used for growth cone electrophysiology (FIGS. 2A-2E; FIGS. 3A-3C) and immunocytochemistry (FIGS. 4A and 4B). To examine the neurite identity and expression of functional AMPA receptor channels (FIGS. 5A-5C), cells were plated on cover glasses that had been coated for four to six hours each with poly-L-lysine (100 μg·ml^−1) and laminin (80 μg·ml^−1) and incubated for three to four hours at 23° C.-25° C. prior to use.
Sema3A (2 U·ml^−1) and netrin-1 (5 ng·ml^−1) were prepared as described (Nishiyama et al., “Membrane Potential Shifts Caused by Diffusible Guidance Signals Direct Growth-Cone Turning,” Nat. Neurosci. 11:762-771 (2008); Togashi et al., “Cyclic GMP-Gated CNG Channels Function in Sema3A-Induced Growth Cone Repulsion,” Neuron 58:694-707 (2008); Goshima, “A Novel Action of Collapsin: Collapsin-1 Increases Antero- and Retrograde Axoplasmic Transport Independently of Growth Cone Collapse,” J. Neurobiol. 33:316-328 (1997); Hong et al., “Calcium Signalling in the Guidance of Nerve Growth by Netrin-1,” Nature 403:93-98 (2000); Nishiyama et al., “Cyclic AMP/GMP-Dependent Modulation of Ca^2+ Channels Sets the Polarity of Nerve Growth-Cone Turning,” Nature 423:990-995 (2003); Hong et al., “A Ligand-Gated Association Between Cytoplasmic Domains of UNC5 and DCC Family Receptors Converts Netrin-Induced Growth Cone Attraction to Repulsion,” Cell 97:927-941 (1999), which are hereby incorporated by reference in their entirety). To test the conversion of the identities of individual neurites and for growth cone electrophysiology, 2,000 U/ml Sema3A (in micropipettes) was applied as a gradient. The biological activity of Sema3A (U·ml^−1) was evaluated using a collapse assay of chick DRG neurons (Goshima, “A Novel Action of Collapsin: Collapsin-1 Increases Antero- and Retrograde Axoplasmic Transport Independently of Growth Cone Collapse,” J. Neurobiol. 33:316-328 (1997), which is hereby incorporated by reference in its entirety). All pharmacological agents were bath-applied 30 min before experiments were performed unless otherwise indicated. Agonist and antagonists were purchased from Calbiochem, Peptide Institute, Sigma, and Tocris.

In data set [2] the test system is tau-1-positive axons of Xenopus spinal cord. Set-up: species or system Xenopus laevis. Particulars: in vivo.
The subject of data set [3] is MAP2 to tau-1 ratio in Xenopus spinal cords. More on the design: species or system Xenopus laevis. As to conditions: in vivo.
Data set [4] deals with putative CINs of Xenopus spinal cord. Kind of data set: Imaging of individual spinal neurons (Texas Red dextran) in MO-injected spinal cords. The class given is in vivo, Xenopus laevis. Particulars: stage 42 tadpole spinal cords.
Where [5] appears, read: injected into hindbrain and spinal cord of stage 30-32 tailbuds.
The mark [6] stands for this setting: xSema3A-A-MO in one side of spinal cords.
[7] abbreviates: xSCINs cultured on laminin, treated for three hours.

Where two headings read alike, the source gives them in different places.

Protocol for Cav2.3 channels: To test the conversion of the identities of individual neurites and for growth cone electrophysiology, 2,000 U/ml Sema3A (in micropipettes) was applied as a gradient. […] All pharmacological agents were bath-applied 30 min before experiments were performed unless otherwise indicated.

Consider `Nc1nc2c(nc(Sc3ccc(Cl)cc3)n2[C@@H]2O[C@@H]3CO[P@@](=O)(S)O[C@H]3[C@H]2O)c(=O)[nH]1` [Rp-8-pCPT-cGMPS], for which, in the data set on Cav2.3 channels, the “Cav2.3 currents induced by a gradient of the agent alone” value is reported as “induced Cav2.3 currents” and the “Sema3A-induced Cav2.3 currents in the presence of the agent” value (from here on “Sema3A-induced Cav2.3 currents”) was “pre-empted”. For the same molecule, in data set [1] (in vivo), the “MAP2-IR / dendrite formation after local administration” value (“MAP2-IR / dendrite formation” for short) is recorded as “drastically reduced” and the “appearance of dendrites in the presence of the xCav2.3” value is reported as “prevented the appearance of dendrites”. Also, in the data set with xCav2.3α1E (in vivo), the “expression of xCav2.3α1E after local administration” value was “significant increase” and the “expression of xCav2.3α1E after local administration in the absence of Sema3A” value (shortened to “expression of xCav2.3α1E … of Sema3A”) is listed as “induced the expression of xCav2”.

Turning to `COCCOC(=O)C1=C(C)NC(C)=C(C(=O)OC(C)C)C1c1cccc([N+](=O)[O-])c1` (centres unmarked) [nimodipine], in data set [1] (in vivo), the “MAP2-IR / dendrite formation” value is on record as “no significant effect”.

On to `C[C@@H]1C[C@@H]([C@H](O)CC2CC(=O)NC(=O)C2)C(=O)[C@@H](C)C1` [cycloheximide], for which the “Rp-8-pCPT-cGMPS-induced Cav2.3 currents in the presence of the agent” value in the data set with Cav2.3 channels is on record as “eliminated”. The “expression of xCav2.3α1E after local administration” value in the data set on xCav2.3α1E (in vivo) is on record as “eliminated”. For the same molecule, the “Sema3A-induced expression of Cav2.3 in vitro after pre-treatment” value in the data set on Cav2.3α1E is recorded as “eliminated”.

For `Nc1nc2c(nc(Br)n2[C@@H]2O[C@@H]3COP(=O)(O)O[C@H]3[C@H]2O)c(=O)[nH]1` [8-Br-cGMP], the “MAP2-IR / dendrite formation” value in data set [1] (setting [5]) is given as “enhanced”. Further, the “rescue of dendrites in the absence of xCav2.3” value in [1] (local administration, xCav2.3α1E-A-MO (FIG. 15N)) is on record as “failed to rescue dendrites”. Further, the “expression of xCav2.3α1E after local administration” value in the data set with xCav2.3α1E (setting [5]) is “enhanced”. In addition, the “expression of xCav2.3α1E … of Sema3A” value in the data set with xCav2.3α1E (setting [6]) was “induced the expression of xCav2”.

Regarding “xSema3A-A-MO: antisense morpholino oligonucleotide against xSema3A mRNA (SEQ ID NO: 8) (antisense ATGCAATCCAGGTCAGAGAGCCCAT; all phosphorodiamidate morpholino (PMO))”, the “MAP2-IR in the MO-injected side of spinal cords” value in [1] is listed as “significantly reduced”. In addition, in the data set with xCav2.3α1E (stage 34), the “expression of xCav2.3α1E in the MO-injected side” value is “reduced markedly”. In the data set on xSema3A, the “expression of xSema3A in the MO-injected side” value is recorded as “reduced significantly”.

With “SNP-1: the soluble Npn-1 ectodomain peptide that sequesters Sema3A”, in the data set with cultured xSCINs (agent bath-applied with Sema3A), the “Sema3A-induced conversion of tau-1-positive axons to MAP2-positive dendrites in the presence of the agent” value (from here on “Sema3A-induced conversion”) is given as “prevented”.

Take `O=c1onc2cnc3ccccc3n12` [ODQ, 1H-[1,2,4]oxadiazolo[4,3-a]quinoxalin-1-one]: the “Rp-8-pCPT-cGMPS-induced Cav2.3 currents in the presence of the agent” value in the data set on Cav2.3 channels (agent as pretreatment / in the bath) is listed as “not affected”. For the same molecule, the “Sema3A-induced Cav2.3 currents” value with Cav2.3 channels (gradient of Sema3A on xSCIN growth cones, agent added) is reported as “prevented”. In addition, the “MAP2-IR / dendrite formation” value in data set [1] (setting [5]) was “abolished”. Also, the “appearance of dendrites in the presence of the xCav2.3” value in [1] (local administration, A-MO in one side of spinal cords (FIGS. 15L, 15M)) is reported as “prevented the appearance of dendrites”. Moreover, in the data set on xCav2.3α1E (setting [5]), the “expression of xCav2.3α1E after local administration” value is reported as “abolished”. In addition, in the data set on xCav2.3α1E (setting [6]), the “expression of xCav2.3α1E … of Sema3A” value is listed as “significant reduction”.

As to “Netrin-1: another secreted factor that effects axon initiation in C. elegans”, in the data set with cultured xSCINs (setting [7]), the MAP2-IR result is listed as “no significant effect” and the “tau-1 immunoreactivity (IR)” value is on record as “no significant effect”.

For “SNX-482 (GVDKAGCRYMFGGCSVNDDCCPRLGCHSLFSYCAWDLTFSD)”, in the data set with Cav2.3 channels, the “Sema3A-induced Cav2.3 currents” value is on record as “abolished”. Moreover, in the data set on cultured xSCINs, the “Sema3A-induced conversion” value is “prevented”. Moreover, in [1] (in vivo), the “MAP2-positive dendrites after local administration, 45 μM” value is on record as “eliminated almost all dendrites” and the “MAP2-positive dendrites after local administration, lower doses” value is recorded as “significant reductions”. In data set [2], the “tau-1-IR after local administration into the spinal cord” value is “significant increase”. In addition, the “ratio of MAP2 to tau-1 in total protein extracted from spinal cords” value in data set [3] was “significantly lower”.

With ω-conotoxin GVIA, the “Sema3A-induced conversion” value in the data set on cultured xSCINs was “neither L-types (nimodipine) nor N-types (ω-conotoxin GVIA) prevented the conversion”. In addition, the “MAP2-IR / dendrite formation” value in data set [1] (in vivo) is “no significant effect”. Also, the “tau-1-IR after local administration into the spinal cord” value in [2] was “neither nimodipine (FIG. 6F and bottom panel, labeled f; FIG. 6G) nor w-conotoxin GVIA (FIG. 6G) had significant effect”.

As to “xCav2.3α1E-A-MO: antisense morpholino oligonucleotide against xCav2.3α1E mRNA (SEQ ID NO: 7) (antisense CTATGTGATATGATTATTTATGACC; all phosphorodiamidate morpholino (PMO))”, in data set [1], the “MAP2-IR in the MO-injected side of spinal cords” value is “significantly reduced”. Besides, the “tau-1-IR in the MO-injected side of the spinal cords” value in data set [2] is “significant increase”. Moreover, the “neurites of individual putative CINs in the MO-treated side” value in data set [4] is listed as “multiple axon-like neurites”.
